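Grown in 96-well plates, cells were treated for 48 hours with each compound at five concentrations. Insufficient inhibition: endpoint recorded as highest concentration tested. TGI marks complete inhibition of growth.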
tested on: DMS 273 small cell lung; experiment: inhibition of tumour cell growth, NCI panel, 48 h

Compound | TGI
N/C(=N\N=C/c1ccc(O)c(O)c1O)NO | 18.5 µM
CC1(C)CCc2ccc(OCCC(=O)O)cc2O1 | > 100 µM
O=C1N(Cl)C(=O)C(c2ccc(Cl)cc2)(c2ccc(Cl)cc2)N1Cl | > 100 µM
CCCCCCNC(=O)C(C)C1CCC2(C)C=CC(=O)C(C)=C2C1O (stereo not drawn) | > 100 µM

tested on: RPMI-8226 leukemia; experiment: inhibition of tumour cell growth, NCI panel, 48 h

Compound | TGI
NC(CCCCCCCCCCP(=O)(O)O)C(=O)O (stereo not drawn) | > 100 µM
N/C(=N\N=C/c1ccc(O)c(O)c1O)NO | > 100 µM
CC1(C)CCc2ccc(OCCC(=O)O)cc2O1 | > 100 µM
O=C1N(Cl)C(=O)C(c2ccc(Cl)cc2)(c2ccc(Cl)cc2)N1Cl | > 100 µM
CCCCCCNC(=O)C(C)C1CCC2(C)C=CC(=O)C(C)=C2C1O (stereo not drawn) | > 100 µM

tested on: COLO 205 colon; experiment: inhibition of tumour cell growth, NCI panel, 48 h

Compound | TGI
NC(CCCCCCCCCCP(=O)(O)O)C(=O)O (stereo not drawn) | > 100 µM
N/C(=N\N=C/c1ccc(O)c(O)c1O)NO | 17.6 µM
CC1(C)CCc2ccc(OCCC(=O)O)cc2O1 | > 100 µM
O=C1N(Cl)C(=O)C(c2ccc(Cl)cc2)(c2ccc(Cl)cc2)N1Cl | > 100 µM
CCCCCCNC(=O)C(C)C1CCC2(C)C=CC(=O)C(C)=C2C1O (stereo not drawn) | > 100 µM

tested on: MOLT-4 leukemia; experiment: inhibition of tumour cell growth, NCI panel, 48 h

Compound | TGI
NC(CCCCCCCCCCP(=O)(O)O)C(=O)O (stereo not drawn) | > 100 µM
N/C(=N\N=C/c1ccc(O)c(O)c1O)NO | > 66.6 µM
CC1(C)CCc2ccc(OCCC(=O)O)cc2O1 | > 100 µM
O=C1N(Cl)C(=O)C(c2ccc(Cl)cc2)(c2ccc(Cl)cc2)N1Cl | > 100 µM
CCCCCCNC(=O)C(C)C1CCC2(C)C=CC(=O)C(C)=C2C1O (stereo not drawn) | > 100 µM

tested on: HT29 colon; experiment: inhibition of tumour cell growth, NCI panel, 48 h

Compound | TGI
NC(CCCCCCCCCCP(=O)(O)O)C(=O)O (stereo not drawn) | > 100 µM
N/C(=N\N=C/c1ccc(O)c(O)c1O)NO | 35.1 µM
CC1(C)CCc2ccc(OCCC(=O)O)cc2O1 | > 100 µM
O=C1N(Cl)C(=O)C(c2ccc(Cl)cc2)(c2ccc(Cl)cc2)N1Cl | > 100 µM
CCCCCCNC(=O)C(C)C1CCC2(C)C=CC(=O)C(C)=C2C1O (stereo not drawn) | > 100 µM

tested on: SNB-78 CNS; experiment: inhibition of tumour cell growth, NCI panel, 48 h

Compound | TGI
N/C(=N\N=C/c1ccc(O)c(O)c1O)NO | > 79.4 µM
CC1(C)CCc2ccc(OCCC(=O)O)cc2O1 | > 100 µM
CCCCCCNC(=O)C(C)C1CCC2(C)C=CC(=O)C(C)=C2C1O (stereo not drawn) | > 100 µM

tested on: SN12C renal; experiment: inhibition of tumour cell growth, NCI panel, 48 h

Compound | TGI
NC(CCCCCCCCCCP(=O)(O)O)C(=O)O (stereo not drawn) | > 100 µM
N/C(=N\N=C/c1ccc(O)c(O)c1O)NO | 34.9 µM
CC1(C)CCc2ccc(OCCC(=O)O)cc2O1 | > 100 µM
O=C1N(Cl)C(=O)C(c2ccc(Cl)cc2)(c2ccc(Cl)cc2)N1Cl | > 100 µM
CCCCCCNC(=O)C(C)C1CCC2(C)C=CC(=O)C(C)=C2C1O (stereo not drawn) | > 100 µM

tested on: SF-295 CNS; experiment: inhibition of tumour cell growth, NCI panel, 48 h

Compound | TGI
NC(CCCCCCCCCCP(=O)(O)O)C(=O)O (stereo not drawn) | > 100 µM
N/C(=N\N=C/c1ccc(O)c(O)c1O)NO | > 40 µM
CC1(C)CCc2ccc(OCCC(=O)O)cc2O1 | > 100 µM
O=C1N(Cl)C(=O)C(c2ccc(Cl)cc2)(c2ccc(Cl)cc2)N1Cl | > 100 µM
CCCCCCNC(=O)C(C)C1CCC2(C)C=CC(=O)C(C)=C2C1O (stereo not drawn) | > 100 µM

tested on: EKVX NSCLC; experiment: inhibition of tumour cell growth, NCI panel, 48 h

Compound | TGI
NC(CCCCCCCCCCP(=O)(O)O)C(=O)O (stereo not drawn) | > 100 µM
N/C(=N\N=C/c1ccc(O)c(O)c1O)NO | > 100 µM
CC1(C)CCc2ccc(OCCC(=O)O)cc2O1 | > 100 µM
O=C1N(Cl)C(=O)C(c2ccc(Cl)cc2)(c2ccc(Cl)cc2)N1Cl | > 100 µM
CCCCCCNC(=O)C(C)C1CCC2(C)C=CC(=O)C(C)=C2C1O (stereo not drawn) | > 100 µM

tested on: MCF7 breast; experiment: inhibition of tumour cell growth, NCI panel, 48 h

Compound | TGI
NC(CCCCCCCCCCP(=O)(O)O)C(=O)O (stereo not drawn) | > 100 µM
N/C(=N\N=C/c1ccc(O)c(O)c1O)NO | 32.9 µM
CCCCCCNC(=O)C(C)C1CCC2(C)C=CC(=O)C(C)=C2C1O (stereo not drawn) | > 100 µM

tested on: KM20L2 colon; experiment: inhibition of tumour cell growth, NCI panel, 48 h

Compound | TGI
N/C(=N\N=C/c1ccc(O)c(O)c1O)NO | 82.5 µM
O=C1N(Cl)C(=O)C(c2ccc(Cl)cc2)(c2ccc(Cl)cc2)N1Cl | > 100 µM
CCCCCCNC(=O)C(C)C1CCC2(C)C=CC(=O)C(C)=C2C1O (stereo not drawn) | > 100 µM

tested on: K-562 leukemia; experiment: inhibition of tumour cell growth, NCI panel, 48 h

Compound | TGI
NC(CCCCCCCCCCP(=O)(O)O)C(=O)O (stereo not drawn) | > 100 µM
N/C(=N\N=C/c1ccc(O)c(O)c1O)NO | 48 µM
CC1(C)CCc2ccc(OCCC(=O)O)cc2O1 | > 100 µM
O=C1N(Cl)C(=O)C(c2ccc(Cl)cc2)(c2ccc(Cl)cc2)N1Cl | > 100 µM
CCCCCCNC(=O)C(C)C1CCC2(C)C=CC(=O)C(C)=C2C1O (stereo not drawn) | > 100 µM

tested on: SW-620 colon; experiment: inhibition of tumour cell growth, NCI panel, 48 h

Compound | TGI
NC(CCCCCCCCCCP(=O)(O)O)C(=O)O (stereo not drawn) | > 100 µM
N/C(=N\N=C/c1ccc(O)c(O)c1O)NO | 39.1 µM
CC1(C)CCc2ccc(OCCC(=O)O)cc2O1 | > 100 µM
O=C1N(Cl)C(=O)C(c2ccc(Cl)cc2)(c2ccc(Cl)cc2)N1Cl | > 100 µM
CCCCCCNC(=O)C(C)C1CCC2(C)C=CC(=O)C(C)=C2C1O (stereo not drawn) | > 100 µM

tested on: HOP-62 NSCLC; experiment: inhibition of tumour cell growth, NCI panel, 48 h

Compound | TGI
N/C(=N\N=C/c1ccc(O)c(O)c1O)NO | > 56.4 µM
CC1(C)CCc2ccc(OCCC(=O)O)cc2O1 | > 100 µM
CCCCCCNC(=O)C(C)C1CCC2(C)C=CC(=O)C(C)=C2C1O (stereo not drawn) | > 100 µM

tested on: OVCAR-8 ovarian; experiment: inhibition of tumour cell growth, NCI panel, 48 h

Compound | TGI
NC(CCCCCCCCCCP(=O)(O)O)C(=O)O (stereo not drawn) | > 100 µM
N/C(=N\N=C/c1ccc(O)c(O)c1O)NO | > 54.1 µM
CC1(C)CCc2ccc(OCCC(=O)O)cc2O1 | > 100 µM
O=C1N(Cl)C(=O)C(c2ccc(Cl)cc2)(c2ccc(Cl)cc2)N1Cl | > 100 µM
CCCCCCNC(=O)C(C)C1CCC2(C)C=CC(=O)C(C)=C2C1O (stereo not drawn) | > 100 µM

tested on: MALME-3M melanoma; experiment: inhibition of tumour cell growth, NCI panel, 48 h

Compound | TGI
N/C(=N\N=C/c1ccc(O)c(O)c1O)NO | > 100 µM
CC1(C)CCc2ccc(OCCC(=O)O)cc2O1 | > 100 µM
O=C1N(Cl)C(=O)C(c2ccc(Cl)cc2)(c2ccc(Cl)cc2)N1Cl | > 100 µM

tested on: DLD-1 colon; experiment: inhibition of tumour cell growth, NCI panel, 48 h

Compound | TGI
N/C(=N\N=C/c1ccc(O)c(O)c1O)NO | 51.2 µM
CC1(C)CCc2ccc(OCCC(=O)O)cc2O1 | > 100 µM
O=C1N(Cl)C(=O)C(c2ccc(Cl)cc2)(c2ccc(Cl)cc2)N1Cl | > 100 µM
CCCCCCNC(=O)C(C)C1CCC2(C)C=CC(=O)C(C)=C2C1O (stereo not drawn) | > 100 µM

tested on: HCT-15 colon; experiment: inhibition of tumour cell growth, NCI panel, 48 h

Compound | TGI
NC(CCCCCCCCCCP(=O)(O)O)C(=O)O (stereo not drawn) | > 100 µM
N/C(=N\N=C/c1ccc(O)c(O)c1O)NO | 34.5 µM
CC1(C)CCc2ccc(OCCC(=O)O)cc2O1 | > 100 µM
O=C1N(Cl)C(=O)C(c2ccc(Cl)cc2)(c2ccc(Cl)cc2)N1Cl | > 100 µM
CCCCCCNC(=O)C(C)C1CCC2(C)C=CC(=O)C(C)=C2C1O (stereo not drawn) | > 100 µM

tested on: A549 NSCLC; experiment: inhibition of tumour cell growth, NCI panel, 48 h

Compound | TGI
NC(CCCCCCCCCCP(=O)(O)O)C(=O)O (stereo not drawn) | > 100 µM
N/C(=N\N=C/c1ccc(O)c(O)c1O)NO | > 100 µM
CC1(C)CCc2ccc(OCCC(=O)O)cc2O1 | > 100 µM
O=C1N(Cl)C(=O)C(c2ccc(Cl)cc2)(c2ccc(Cl)cc2)N1Cl | > 100 µM
CCCCCCNC(=O)C(C)C1CCC2(C)C=CC(=O)C(C)=C2C1O (stereo not drawn) | > 100 µM

tested on: SK-MEL-5 melanoma; experiment: inhibition of tumour cell growth, NCI panel, 48 h

Compound | TGI
NC(CCCCCCCCCCP(=O)(O)O)C(=O)O (stereo not drawn) | > 100 µM
N/C(=N\N=C/c1ccc(O)c(O)c1O)NO | 45.1 µM
CC1(C)CCc2ccc(OCCC(=O)O)cc2O1 | > 100 µM
O=C1N(Cl)C(=O)C(c2ccc(Cl)cc2)(c2ccc(Cl)cc2)N1Cl | > 100 µM
CCCCCCNC(=O)C(C)C1CCC2(C)C=CC(=O)C(C)=C2C1O (stereo not drawn) | > 100 µM

Source: PubChem BioAssay (NCI)
